Earlier results, collected in PMC4931877 (The Journal of Pharmacology and Experimental Therapeutics, 2016).

System: γ-secretase
Conditions: ref Fleisher et al., 2008; Coric et al., 2012; Doody et al., 2013; cited from earlier work

Row | Structure (SMILES) | outcome of mild-moderate AD clinical trials
1 | NC(=O)[C@@H](CCC(F)(F)F)N(Cc1ccc(-c2ncon2)cc1F)S(=O)(=O)c1ccc(Cl)cc1 [BMS-708163, (2R)-2-[(4-chlorophenyl)sulfonyl-[[2-fluoro-4-(1,2,4-oxadiazol-3-yl)phenyl]methyl]amino]-5,5,5-trifluoropentanamide] | Notch-related nonmelanoma skin cancers and/or progression and worsening of cognitive measures
2 | CC(C)[C@H](O)C(=O)N[C@@H](C)C(=O)N[C@@H]1C(=O)N(C)CCc2ccccc21 [LY450139] | Notch-related nonmelanoma skin cancers and/or progression and worsening of cognitive measures
